US4128639A, “Nitrosourea analogs of thymidine” (Research Corporation, priority 1977, dated 1978)
Read-outs that look alike come from different tables or passages of the source.

Key:
[1] = system: L1210 leukemia cells; experiment: Culture study with L1210: inhibition of replication/growth of L1210 cells in vitro; type: cell-based; details: Mus musculus, read-out: ED50 (drug concentration needed to inhibit cell growth by 50%)
Protocol: The effect of the compounds on the growth of L1210 cells in vitro was used as a measure of cytotoxicity. Suspension cultures were grown in Fischer's media supplemented with 10% horse serum at 37°. 72 Hours after addition of the nitrosoureas, cell numbers were determined in two independent samples, in duplicate, using a Coulter counter, for each concentration tested. ED50 values were estimated from dose-response curves compiled from at least three separate experiments and represent the drug concentration needed to inhibit cell growth by 50%.

[2] = system: L1210 cells; experiment: Reversal of cytotoxicity of nitrosourea analogs of thymidine by pyrimidine deoxyribonucleosides (inhibition study in L1210 cultures); type: cell-based; details: for Percent Reversal: nitrosourea analog 5 μM
[3] = system: L1210 cells; experiment: In vivo study with CDF1 mice inoculated with L1210 cells
Protocol: Two groups of CDF1 mice were inoculated with 1 × 10^5 L1210 cells/animal intraperitoneally. Two days later, one group of six mice received a single intraperitoneal injection (150 mg/Kg) of compound 5 (5'-[3-(2-chloroethyl)-3-nitrosoureido]-5'-deoxythymidine) and the control group was administered an equal volume of vehicle.

[4] = reversing agent deoxycytidine 0 μM
[5] = reversing agent deoxycytidine 5 μM
[6] = reversing agent deoxycytidine 25 μM
[7] = reversing agent deoxyuridine 0 μM
[8] = reversing agent deoxyuridine 5 μM
[9] = reversing agent deoxyuridine 25 μM
[10] = reversing agent thymidine 25 μM
[11] = single intraperitoneal injection 150 mg/kg, 2 days after 1 × 10^5 L1210 cells, CDF1 mice

SMILES | IC50 ([1]; L1210, 72 h) | Percent Reversal [2, 4] | Percent Reversal [2, 5] | Percent Reversal [2, 6] | Percent Reversal [2, 7] | Percent Reversal [2, 8] | Percent Reversal [2, 9] | Percent Reversal ([2]; reversing agent thymidine 0 μM) | Percent Reversal ([2]; reversing agent thymidine 1 μM) | Percent Reversal ([2]; reversing agent thymidine 5 μM) | Percent Reversal [2, 10] | other results
Cc1cn([C@H]2C[C@H](NC(=O)N(CCCl)N=O)[C@@H](CO)O2)c(=O)[nH]c1=O [Compound 10, 3'-[3-(2-chloroethyl)-3-nitrosoureido]-3'-deoxythymidine] | 1.5 µM | 0% | 28% | 40% | 0% | 32% | 51% | 0% | 22% | 45% | 54% | Percent Reversal ([2]; reversing agent deoxycytidine 1 μM): 5%; Percent Reversal ([2]; reversing agent deoxyuridine 1 μM): 4%
O=NN(CCCl)C(=O)NCCCl [BCNU, 1,3-bis(2-Chloroethyl)-1-nitrosourea, reference compound] | 4 µM | – | – | – | – | – | – | – | – | – | – | –
Cc1cn([C@H]2C[C@H](NC(=O)N(C)N=O)[C@@H](CO)O2)c(=O)[nH]c1=O [Compound 11, 3'-(3-methyl-3-nitrosoureido)-3'-deoxythymidine] | – | 0% | 42% | 74% | 0% | 49% | 81% | 0% | 21% | 54% | 62% | IC50 ([1]; L1210 cells in culture, 72 hours, Coulter counter, Fischer's media with 10% horse serum, 37°): 1 µM; inhibition at 5 µM ([2]; Mus musculus, compound 11 5 μM, no deoxycytidine, L1210, 72 hours, read-out: Percent Inhibition): 100%; Percent Inhibition ([2]; compound 11 5 μM + deoxycytidine 5 μM, L1210, 72 hours): 58%; Percent Inhibition ([2]; compound 11 5 μM + deoxycytidine 25 μM, L1210, 72 hours): 26%; Percent Inhibition ([2]; compound 11 5 μM + deoxycytidine 125 μM, L1210, 72 hours): 0%; Percent Reversal ([2]; reversing agent deoxycytidine 125 μM): 100%
Cc1cn([C@H]2C[C@H](O)[C@@H](CNC(=O)N(CCCl)N=O)O2)c(=O)[nH]c1=O [Compound 5, 5'-[3-(2-chloroethyl)-3-nitrosoureido]-5'-deoxythymidine] | – | – | – | – | – | – | – | – | – | – | – | animals survived more than 60 days ([3]; single intraperitoneal injection 150 mg/Kg, 2 days after 1 × 10^5 L1210 cells, CDF1 mice): 2/6; tumor cell kill ([3]; single intraperitoneal injection 150 mg/Kg, L1210, CDF1 mice): ~5 log; increase in life span of the dying animals over the controls [3, 11]: 211%; long term survivors (>60 days) [3, 11]: 33%
